According to ChEMBL document CHEMBL4619777, “A New Class of Dengue and West Nile Virus Protease Inhibitors with Submicromolar Activity in Reporter Gene DENV-2 Protease and Viral Replication Assays” (J Med Chem, 2020):
Calls of active or inactive are those of the source. Unless noted, the calls are words filed in the database; no cut-off is given here.

How the values were obtained:
[1] = molecular target: Genome polyprotein (dengue virus type 2) (UniProt P29990); experiment: Inhibition of Dengue virus serotype 2 NS2B-NS3 protease transfected in human HeLa cells at 12.5 uM measured after 24 hrs by Renilla-luciferase reporter gene assay relative to control; assay type: cell-based
[2] = molecular target: Prothrombin (Homo sapiens, UniProt P00734); experiment: Inhibition of thrombin (unknown origin) at 25 uM using Boc-Val-Pro-Arg-AMC as substrate preincubated for 15 mins followed by substrate addition and measured for 15 mins by fluorimetric assay; settings: 0.25 h
[3] = Drug metabolism in pH 7 DENV2proHeLa medium assessed as racemization incubated for 96 hrs at 37 degC RP-HPLC analysis; assay type: physicochemical; settings: pH 7, 96 h
[4] = Permeability of the compound assessed as mass retention at 200 uM measured after 5 hrs at pH 7.4 by PAMPA; assay type: ADME; settings: pH 7.4, 5 h
[5] = Drug metabolism in pH13 sodium hydroxide solution assessed as racemization incubated for 96 hrs at room temperature RP-HPLC analysis; assay type: physicochemical; settings: pH 13, 96 h
[6] = molecular target: Genome polyprotein (West Nile virus) (UniProt P06935); experiment: Inhibition of West Nile virus NS2B-NS3 protease expressed in Escherichia coli BL21 lambda (DE3) cells at 50 uM using Abz-Gly-Leu-Lys-Arg-Gly-Gly-3-(NO2)Tyr as substrate preincubated for 15 mins followed by substrate addition measured for 15 mins by fluorimetric analysis relative to control
[7] = molecular target: T1, Genome polyprotein (dengue virus type 2, UniProt P29990); experiment: Inhibition of Dengue virus serotype 2 NS2B-NS3 protease transfected in human HeLa cells measured after 24 hrs by Renilla-luciferase reporter gene assay; assay type: cell-based
[8] = Drug metabolism in pH 7.4 phosphate buffered saline assessed as racemization incubated for 96 hrs at 37 degC RP-HPLC analysis; assay type: physicochemical; settings: buffer, pH 7.4, 96 h
[9] = system: Huh-7; experiment: Cytotoxicity against human HuH7 cells assessed as reduction in cell viability at 12 uM measured after 48 hrs by celltiter-blue assay; assay type: cell-based; settings: huh-7, 48 h
[10] = Drug metabolism in pH13 sodium hydroxide solution assessed as racemization incubated for 96 hrs at 37 degC RP-HPLC analysis; assay type: physicochemical; settings: pH 13, 96 h
[11] = molecular target: Genome polyprotein (West Nile virus) (UniProt P06935); experiment: Competitive inhibition of West Nile virus NS2B-NS3 protease expressed in Escherichia coli BL21 lambda (DE3) cells using varying levels of Abz-Gly-Leu-Lys-Arg-Gly-Gly-3-(NO2)Tyr as substrate by Cheng-Prusoff plot analysis
[12] = molecular target: Genome polyprotein (dengue virus type 2) (UniProt P29990); experiment: Competitive inhibition of Dengue virus serotype 2 NS2B-NS3 protease expressed in Escherichia coli BL21 lambda (DE3) cells using varying levels of Abz-Nle-Lys-Arg-Arg-Ser-3-(NO2)Tyr as substrate by Cheng-Prusoff plot analysis
[13] = Drug metabolism in pH 9 Tris-HCl buffer assessed as racemization incubated for 96 hrs at 37 degC RP-HPLC analysis; assay type: physicochemical; settings: pH 9, 96 h
[14] = Permeability of the compound assessed as drug level in acceptor plate at 200 uM measured after 5 hrs at pH 7.4 by PAMPA; assay type: ADME; settings: pH 7.4, 5 h
[15] = system: dengue virus type 2; experiment: Antiviral activity against DENV2 infected in human HuH7 cells assessed as reduction in virus titer measured after 48 hrs; assay type: functional, organism-based; settings: Huh-7, 48 h
[16] = Cytotoxicity against human HeLa cells assessed as reduction in cell viability measured after 24 hrs by celltiter-blue assay; assay type: cell-based
[17] = system: dengue virus type 2; experiment: Antiviral activity against DENV2 infected in human HuH7 cells assessed as reduction in virus titer at 10 uM measured after 48 hrs relative to control; assay type: functional; settings: Huh-7, 48 h
[18] = molecular target: Trypsin (Homo sapiens, UniProt P07477+P07478+P35030); experiment: Inhibition of trypsin (unknown origin) at 50 uM using Boc-Val-Pro-Arg-AMC as substrate preincubated for 15 mins followed by substrate addition and measured for 15 mins by fluorimetric assay relative to control; assay type: protein assay; settings: 0.25 h, 50 µM
[19] = Permeability of the compound at 200 uM measured after 5 hrs at pH 7.4 by PAMPA; assay type: ADME; settings: read-out: permeability
[20] = molecular target: T1, Genome polyprotein; experiment: Inhibition of Dengue virus serotype 2 NS2B-NS3 protease expressed in Escherichia coli BL21 lambda (DE3) cells using Abz-Nle-Lys-Arg-Arg-Ser-3-(NO2)Tyr as substrate preincubated for 15 mins followed by substrate addition and measured for 15 mins by FRET assay
[21] = Permeability of the compound assessed as drug level in donor plate at 200 uM measured after 5 hrs at pH 7.4 by PAMPA; assay type: ADME; settings: pH 7.4, 5 h
[22] = molecular target: Genome polyprotein (dengue virus type 2) (UniProt P29990); experiment: Inhibition of Dengue virus serotype 2 NS2B-NS3 protease expressed in Escherichia coli BL21 lambda (DE3) cells at 50 uM using Abz-Nle-Lys-Arg-Arg-Ser-3-(NO2)Tyr as substrate preincubated for 15 mins followed by substrate addition and measured for 15 mins by FRET assay relative to control
[23] = molecular target: Genome polyprotein (West Nile virus, UniProt P06935); experiment: Inhibition of West Nile virus NS2B-NS3 protease expressed in Escherichia coli BL21 lambda (DE3) cells using Abz-Gly-Leu-Lys-Arg-Gly-Gly-3-(NO2)Tyr as substrate preincubated for 15 mins followed by substrate addition measured for 15 mins by fluorimetric analysis
Chain of Genome polyprotein (West Nile virus, UniProt P06935) (P06935 1371-1501 limits assumed): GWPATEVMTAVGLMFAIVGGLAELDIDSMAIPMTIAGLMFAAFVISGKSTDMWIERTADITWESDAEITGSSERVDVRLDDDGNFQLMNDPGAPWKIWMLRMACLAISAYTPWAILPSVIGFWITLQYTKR
Chain of Genome polyprotein (West Nile virus, UniProt P06935) (P06935 1502-2120 limits assumed): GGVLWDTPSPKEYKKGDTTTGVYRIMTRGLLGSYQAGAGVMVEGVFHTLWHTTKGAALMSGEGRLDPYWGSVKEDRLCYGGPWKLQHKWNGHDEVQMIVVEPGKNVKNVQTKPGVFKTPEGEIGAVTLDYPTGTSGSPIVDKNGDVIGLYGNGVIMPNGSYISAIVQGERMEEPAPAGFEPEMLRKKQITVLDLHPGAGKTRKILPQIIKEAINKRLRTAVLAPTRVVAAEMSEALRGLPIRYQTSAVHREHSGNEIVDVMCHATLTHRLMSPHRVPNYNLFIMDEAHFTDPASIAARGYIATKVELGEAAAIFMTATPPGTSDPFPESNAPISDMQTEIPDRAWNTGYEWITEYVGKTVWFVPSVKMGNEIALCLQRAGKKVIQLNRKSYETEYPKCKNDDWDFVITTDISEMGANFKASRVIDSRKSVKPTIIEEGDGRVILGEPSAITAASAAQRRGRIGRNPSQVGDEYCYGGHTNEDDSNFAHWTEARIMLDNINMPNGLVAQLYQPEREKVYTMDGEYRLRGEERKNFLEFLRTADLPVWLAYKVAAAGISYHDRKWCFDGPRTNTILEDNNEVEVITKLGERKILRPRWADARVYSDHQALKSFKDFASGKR

Chain of Genome polyprotein (West Nile virus) (P06935 whole entry): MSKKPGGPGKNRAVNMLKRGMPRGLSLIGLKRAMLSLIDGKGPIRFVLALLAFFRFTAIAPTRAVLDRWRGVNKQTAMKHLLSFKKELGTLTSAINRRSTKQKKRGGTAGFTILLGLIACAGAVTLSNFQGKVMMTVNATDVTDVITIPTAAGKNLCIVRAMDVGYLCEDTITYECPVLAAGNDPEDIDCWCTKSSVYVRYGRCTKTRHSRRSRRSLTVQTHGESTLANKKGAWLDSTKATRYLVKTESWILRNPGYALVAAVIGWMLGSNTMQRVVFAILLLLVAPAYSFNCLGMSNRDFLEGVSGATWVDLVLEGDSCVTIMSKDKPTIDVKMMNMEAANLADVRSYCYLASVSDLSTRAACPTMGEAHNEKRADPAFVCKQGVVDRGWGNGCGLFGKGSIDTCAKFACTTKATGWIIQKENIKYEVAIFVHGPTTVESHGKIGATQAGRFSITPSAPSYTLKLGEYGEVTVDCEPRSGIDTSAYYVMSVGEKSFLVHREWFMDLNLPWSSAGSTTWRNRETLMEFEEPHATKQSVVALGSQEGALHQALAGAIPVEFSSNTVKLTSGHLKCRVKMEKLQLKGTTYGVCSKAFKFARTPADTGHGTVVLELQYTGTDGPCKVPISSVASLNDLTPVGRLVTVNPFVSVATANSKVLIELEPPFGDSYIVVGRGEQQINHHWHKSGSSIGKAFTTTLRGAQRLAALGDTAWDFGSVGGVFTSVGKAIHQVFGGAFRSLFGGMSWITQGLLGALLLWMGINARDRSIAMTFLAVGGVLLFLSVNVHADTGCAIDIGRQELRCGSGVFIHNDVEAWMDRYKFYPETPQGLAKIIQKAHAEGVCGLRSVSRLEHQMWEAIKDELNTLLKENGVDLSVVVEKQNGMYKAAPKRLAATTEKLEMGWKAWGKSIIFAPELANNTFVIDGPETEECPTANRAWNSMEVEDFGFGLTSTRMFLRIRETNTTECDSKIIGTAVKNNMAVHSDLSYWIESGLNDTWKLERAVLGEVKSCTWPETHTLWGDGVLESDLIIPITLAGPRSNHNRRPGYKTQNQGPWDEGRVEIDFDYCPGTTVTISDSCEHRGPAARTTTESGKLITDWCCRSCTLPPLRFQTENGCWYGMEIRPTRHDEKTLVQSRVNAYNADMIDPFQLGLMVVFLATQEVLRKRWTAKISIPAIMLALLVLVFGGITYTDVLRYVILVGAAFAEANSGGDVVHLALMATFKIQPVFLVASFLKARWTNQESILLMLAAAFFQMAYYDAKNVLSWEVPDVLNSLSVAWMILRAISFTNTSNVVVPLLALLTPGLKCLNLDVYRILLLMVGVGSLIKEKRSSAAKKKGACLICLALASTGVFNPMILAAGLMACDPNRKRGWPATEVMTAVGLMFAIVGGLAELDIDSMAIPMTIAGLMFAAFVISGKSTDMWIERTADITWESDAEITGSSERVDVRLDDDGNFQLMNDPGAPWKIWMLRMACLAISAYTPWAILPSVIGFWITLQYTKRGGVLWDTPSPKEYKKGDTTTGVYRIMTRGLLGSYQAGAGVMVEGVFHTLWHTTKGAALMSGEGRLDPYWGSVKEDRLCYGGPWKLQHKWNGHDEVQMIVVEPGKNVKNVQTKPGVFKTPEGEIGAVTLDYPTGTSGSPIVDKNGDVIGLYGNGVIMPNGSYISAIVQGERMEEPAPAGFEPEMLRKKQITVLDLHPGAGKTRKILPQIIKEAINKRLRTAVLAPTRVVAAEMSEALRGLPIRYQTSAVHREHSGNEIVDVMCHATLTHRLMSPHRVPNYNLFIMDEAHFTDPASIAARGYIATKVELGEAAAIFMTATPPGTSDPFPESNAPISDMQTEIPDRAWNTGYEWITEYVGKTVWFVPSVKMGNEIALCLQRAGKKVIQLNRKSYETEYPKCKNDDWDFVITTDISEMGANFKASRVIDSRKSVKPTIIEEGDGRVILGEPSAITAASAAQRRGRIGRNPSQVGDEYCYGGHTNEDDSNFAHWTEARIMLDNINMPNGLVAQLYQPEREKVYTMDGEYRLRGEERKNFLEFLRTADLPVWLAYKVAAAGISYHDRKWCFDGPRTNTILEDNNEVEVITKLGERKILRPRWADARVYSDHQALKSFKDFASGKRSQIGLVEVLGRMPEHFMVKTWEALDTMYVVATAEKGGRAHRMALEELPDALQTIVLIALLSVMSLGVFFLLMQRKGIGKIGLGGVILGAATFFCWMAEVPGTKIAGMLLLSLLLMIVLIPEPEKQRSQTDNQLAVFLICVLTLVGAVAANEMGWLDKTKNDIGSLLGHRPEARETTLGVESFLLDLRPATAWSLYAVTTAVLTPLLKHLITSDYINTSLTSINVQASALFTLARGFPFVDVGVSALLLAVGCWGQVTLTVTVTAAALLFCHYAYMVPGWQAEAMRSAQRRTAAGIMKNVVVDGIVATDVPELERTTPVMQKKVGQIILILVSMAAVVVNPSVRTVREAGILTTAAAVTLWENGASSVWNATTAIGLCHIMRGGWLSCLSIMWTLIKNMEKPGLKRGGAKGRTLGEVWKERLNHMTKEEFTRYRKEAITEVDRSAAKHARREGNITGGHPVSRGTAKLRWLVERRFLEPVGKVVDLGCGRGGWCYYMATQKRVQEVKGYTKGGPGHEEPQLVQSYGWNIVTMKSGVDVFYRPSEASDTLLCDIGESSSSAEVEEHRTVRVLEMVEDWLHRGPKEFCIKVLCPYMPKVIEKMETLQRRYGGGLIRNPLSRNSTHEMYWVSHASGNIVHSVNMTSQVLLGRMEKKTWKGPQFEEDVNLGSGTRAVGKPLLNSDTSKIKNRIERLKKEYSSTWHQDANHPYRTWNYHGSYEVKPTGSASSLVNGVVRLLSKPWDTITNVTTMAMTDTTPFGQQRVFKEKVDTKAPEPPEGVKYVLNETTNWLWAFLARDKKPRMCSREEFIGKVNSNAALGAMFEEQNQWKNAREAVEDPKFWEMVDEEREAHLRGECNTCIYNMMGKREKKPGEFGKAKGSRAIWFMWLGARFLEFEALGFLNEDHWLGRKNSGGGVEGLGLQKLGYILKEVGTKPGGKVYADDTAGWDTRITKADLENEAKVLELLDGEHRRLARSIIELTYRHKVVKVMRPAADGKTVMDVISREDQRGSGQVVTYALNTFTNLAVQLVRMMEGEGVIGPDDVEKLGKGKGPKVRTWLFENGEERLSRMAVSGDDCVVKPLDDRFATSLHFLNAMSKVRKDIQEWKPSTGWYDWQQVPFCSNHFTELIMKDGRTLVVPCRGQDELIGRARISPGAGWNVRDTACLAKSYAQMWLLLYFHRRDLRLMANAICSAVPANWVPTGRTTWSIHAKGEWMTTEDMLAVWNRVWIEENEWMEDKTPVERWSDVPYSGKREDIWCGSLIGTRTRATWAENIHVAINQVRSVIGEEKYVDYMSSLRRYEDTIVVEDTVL

Structure (SMILES): CCCCCC(=O)N[C@H](C(=O)NCc1ccc(NC(=N)N)cc1)c1ccc(OCc2ccccc2)cc1.O=C(O)C(F)(F)F
- inhibition [1]: 79.8%
- inhibition (INH) [2]: Not Active
- Drug metabolism [3]: Metabolite_Notdetected
- R% [4]: 12%
- Drug metabolism [5]: Metabolite_Detected
- inhibition [6]: 102%
- EC50 [7]: 490 nM
- Drug metabolism [8]: Metabolite_Notdetected
- Activity [9]: Non-Toxic
- Drug metabolism [10]: Metabolite_Detected
- inhibition [11]: Active
- inhibition [12]: Active
- Drug metabolism [13]: Metabolite_Notdetected
- Drug uptake [14]: 7.5 µM
- EC50 [15]: 890 nM
- CC50 at 24 h [16]: > 50 µM
- inhibition at 10 µM [17]: 84.5%
- inhibition (INH) [18]: Not Active
- Papp at 5 h, 200 µM [19]: 1.6 ×10⁻⁶ cm/s
- IC50 [20]: 11 µM
- Ki [20]: 9.8 µM
- Drug uptake [21]: 171 µM
- inhibition [22]: 95.1%
- IC50 [23]: 13 µM
- Ki [23]: 12 to 12.4 µM
